Experimental data taken from patent US8871756B2 (Hoffmann-La Roche Inc., priority 2011, dated 2014).
Counter-ions that a name gives are not always drawn.

Test system: RSV Long strain
Assay: Viral cytopathic effect (CPE) assay, anti-RSV activity
Type: cell-based, Respiratory Syncytial Virus
Conditions: human respiratory syncytial virus, 144 h, RSV Long strain (ATCC); cell viability after 6 days, Cell Counting kit-8
How it was run: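 Cells (6×10^3/well, DMEM with 10% FBS) were infected next day with RSV Long strain, at a dose giving approximately 80–90% CPE, alongside serial half-log compound dilutions. Viability was read after 6 days by CCK-8 absorbance at 450 nm (reference 630 nm), and EC50 was derived from it.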

Row | Compound | EC50 [µM]
1 | Cc1ccc2nc(N3CCS(=O)(=O)c4ccccc4C3)cc(NCC(O)CCO)c2c1 (centres unmarked) [Example 68, 4-{[2-(1,1-Dioxido-2,3-dihydro-1,4-benzothiazepin-4(5H)-yl)-6-methylquinolin-4-yl]amino}butane-1,3-diol] | 2.01
2 | NCCCNc1cc(N2CCS(=O)(=O)c3ccccc3C2)nc2cccc(Cl)c12 [Example 9-13, N-[5-Chloro-2-(1,1-dioxido-2,3-dihydro-1,4-benzothiazepin-4(5H)-yl)quinolin-4-yl]propane-1,3-diamine] | 0.701
3 | Cc1ccc2nc(N3CCS(=O)(=O)c4ccccc4C3)cc(NC(=O)Cc3ccccn3)c2c1 [Example 47-6, N-[2-(1,1-Dioxido-2,3-dihydro-1,4-benzothiazepin-4(5H)-yl)-6-methylquinolin-4-yl]-2-(pyridin-2-yl)acetamide] | 2.31
4 | Cc1ccc2nc(N3CCS(=O)(=O)c4ccccc4C3)cc(N3CCCC(N)C3)c2c1 (centres unmarked) [Example 16-1, 1-[2-(1,1-Dioxido-2,3-dihydro-1,4-benzothiazepin-4(5H)-yl)-6-methylquinolin-4-yl]piperidin-3-amine] | 2.57
5 | Cc1ccc2nc(N3CC[S+]([O-])c4ccccc4C3)nc(N[C@@H]3CNC[C@H]3F)c2c1 (relative stereo) [Example 92-1, N-(trans-4-Fluoropyrrolidin-3-yl)-6-methyl-2-(1-oxido-2,3-dihydro-1,4-benzothiazepin-4(5H)-yl)quinazolin-4-amine] | 0.009
6 | Cc1ccc2nc(N3CCS(=O)(=O)c4ccc(F)cc4C3)cc(NCC3(N)COC3)c2c1 [Example 1-3, N-[(3-Aminooxetan-3-yl)methyl]-2-(7-fluoro-1,1-dioxido-2,3-dihydro-1,4-benzothiazepin-4(5H)-yl)-6-methylquinolin-4-amine] | 0.072
7 | Cc1ccc2nc(N3CCS(=O)(=O)c4ccccc4C3)cc(N3C[C@@H]4[C@@H](N)[C@@H]4C3)c2c1 [Example 19-2, (1R,5S,6S)-3-[2-(1,1-Dioxido-2,3-dihydro-1,4-benzothiazepin-4(5H)-yl)-6-methylquinolin-4-yl]-3-azabicyclo[3.1.0]hexan-6-amine] | 0.011
8 | Cc1ccc2nc(N3CCS(=O)(=O)c4ccccc4C3)cc(NC(=O)C3CCCCN3)c2c1 (centres unmarked) [Example 47-5, N-[2-(1,1-Dioxido-2,3-dihydro-1,4-benzothiazepin-4(5H)-yl)-6-methylquinolin-4-yl]piperidine-2-carboxamide] | 0.835
9 | Cc1ccc2nc(N3CCC(F)(F)c4ccccc4C3)cc(NCC(C)(C)N)c2c1 [Example 110-12, N˜1˜-[2-(5,5-Difluoro-1,3,4,5-tetrahydro-2H-2-benzazepin-2-yl)-6-methylquinolin-4-yl]-2-methylpropane-1,2-diamine] | 0.072
10 | Cc1ccc2nc(N3CC[S+]([O-])c4ccccc4C3)nc(NCC(F)(F)CN)c2c1 (centres unmarked) [Example 56-2, 2,2-Difluoro-N-[6-methyl-2-(1-oxido-2,3-dihydro-1,4-benzothiazepin-4(5H)-yl)quinazolin-4-yl]propane-1,3-diamine] | 0.023
11 | Cc1ccc2nc(N3CCS(=O)(=O)c4ccccc4C3)cc(NCC3(CO)COC3)c2c1 [Example 3-9, [3-({[2-(1,1-Dioxido-2,3-dihydro-1,4-benzothiazepin-4(5H)-yl)-6-methylquinolin-4-yl]amino}methyl)oxetan-3-yl]methanol] | 0.248
12 | Cc1ccc2nc(N3CCS(=O)(=O)c4ccccc4C3)cc(NS(=O)(=O)C(F)(F)F)c2c1 [Example 3-57, N-[2-(1,1-Dioxido-2,3-dihydro-1,4-benzothiazepin-4(5H)-yl)-6-methylquinolin-4-yl]-1,1,1-trifluoromethanesulfonamide hydrochloride] | 7.53
13 | COc1ccc2c(c1)CCCN(c1cc(NCCN)c3ccccc3n1)C2 [Example 118-15, N-[2-(7-Methoxy-1,3,4,5-tetrahydro-2H-2-benzazepin-2-yl)quinolin-4-yl]ethane-1,2-diamine] | 0.626
14 | Cc1ccc2nc(N3CCS(=O)(=O)c4ccccc4C3)cc(NC(=O)C3CCN3)c2c1 (centres unmarked) [Example 49, N-[2-(1,1-Dioxido-2,3-dihydro-1,4-benzothiazepin-4(5H)-yl)-6-methylquinolin-4-yl]azetidine-2-carboxamide] | 0.721

Test system: RSV infection
Assay: not given
Conditions: selected infants; intramuscularly at 15 mg/kg once a month for the duration of RSV season; cited from earlier work

Row | Compound | reduction of hospitalization rate caused by RSV infection
15 | palivizumab | 45-55%

Test system: established RSV infection
Assay: not given
Conditions: in vivo; cited from earlier work

Row | Compound | efficacy in the treatment of established RSV infection
16 | palivizumab | not effective

Test system: RSV
Assay: not given
Conditions: Phase III clinical trials; cited from earlier work

Row | Compound | benefit over palivizumab
17 | motavizumab | failed to show additional benefit over palivizumab
